Source: PMC3855964, “Cysteine-10 on 17β-Hydroxysteroid Dehydrogenase 1 Has Stabilizing Interactions in the Cofactor Binding Region and Renders Sensitivity to Sulfhydryl Modifying Chemicals” (International Journal of Cell Biology, 2013)
Substitutions are numbered along the chain they refer to. Where two headings read alike, the source gives them in different places.

Tests used:
[1] = biological target: T1, Cys^10Ser mutant 17β-HSD1 (Homo sapiens, UniProt P14061, C11S); test: Cys^10Ser mutant 17β-HSD1 reductase activity (estrone to estradiol) in lysates of transfected HEK-293 cells; assay type: biochemical
T1 construct: expressed in transfected cells; host or cells: HEK-293 (transient calcium phosphate transfection; cell lysates used)
T1 sequence (P14061 1-328 C11S): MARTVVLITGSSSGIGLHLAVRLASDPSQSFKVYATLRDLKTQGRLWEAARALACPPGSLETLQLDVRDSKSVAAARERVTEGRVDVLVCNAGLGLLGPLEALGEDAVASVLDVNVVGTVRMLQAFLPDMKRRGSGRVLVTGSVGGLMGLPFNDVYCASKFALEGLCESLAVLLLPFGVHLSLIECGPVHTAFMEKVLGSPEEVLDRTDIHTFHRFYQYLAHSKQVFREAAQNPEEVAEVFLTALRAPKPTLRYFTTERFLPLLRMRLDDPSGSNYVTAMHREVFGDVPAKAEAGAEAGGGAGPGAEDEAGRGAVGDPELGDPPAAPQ
Experimental: In order to facilitate detection, an octahistidine tag was added to the C-terminus of human 17β-HSD1 by PCR amplification using oligonucleotide primers containing the tag-coding sequence (forward primer 5′-[…]-3′, reverse primer 5′-[…]-3′). […] The substitution of Cys^10 to serine was introduced into the C-terminal histidine-tagged 17β-HSD1 cDNA in Bluescript vector by site-directed mutagenesis using the forward primer 5′-[…]-3′ and the reverse primer 5′-[…]-3′ according to the Quick Change mutagenesis kit (Stratagene, Amsterdam, The Netherlands), followed by subsequent recloning into pcDNA3.1 expression plasmid.
(§1) To determine 17β-HSD1 activity, HEK-293 cells were transfected by the calcium phosphate precipitation method. Cells were harvested 48 h after transfection, washed twice with phosphate-buffered saline (PBS), and centrifuged for 4 min at 150 ×g. Supernatants were removed and the cell pellets were quick-frozen in a dry ice-ethanol bath and stored at −80°C. The reductase activity of 17β-HSD1 was measured by incubation of cell lysates for 10 min at 37°C in the presence of 200 nM radiolabeled estrone and 400 μM NADPH in a reaction buffer containing 20% glycerol, 1 mM EDTA, and 50 mM potassium phosphate, pH 7.4. Inhibitors were diluted from stock solutions in dimethylsulfoxide (DMSO) and immediately used in the assays.
(§2) For determination of enzyme kinetics, estrone concentrations ranging from 10 to 800 nM were used. Data (mean ± SD) were obtained from three independent experiments and were calculated using the Data Analysis Toolbox (Elsevier MDL, Allschwil, Switzerland).

[2] = biological target: T2, human 17β-HSD1 (Homo sapiens, UniProt P14061); test: 17β-HSD1 reductase activity (estrone to estradiol) in lysates of transfected HEK-293 cells; assay type: biochemical; details: for IC50 for 17β-HSD1 compared with those obtained for 11β-HSD2: simultaneous incubation with substrate and inhibitor, 11β-HSD2 values from ref 20
T2 construct: expressed in transfected cells; host or cells: HEK-293 (transient calcium phosphate transfection; cell lysates used)
T2 sequence (P14061 1-328): T1 sequence (P14061 1-328 C11S) with S11C
Experimental: as §1, §2

[3] = simultaneous incubation of lysates with 200 nM estrone and inhibitor, 400 μM NADPH, 10 min, 37°C, read-out: IC50

Molecule | IC50 [2, 3] [µM] | IC50 for 17β-HSD1 compared with those obtained for 11β-HSD2 [2] | further results
CCN1C(=O)C=CC1=O [NEM, N-ethylmaleimide] | 22 ± 6 | – | inhibition of wild-type enzyme relative to mutant Cys^10Ser ([1]; cell lysates, data not shown): approximately two times stronger; 17β-HSD1 activity after preincubation with inhibitor ([2]; preincubation of lysates with 20 μM NEM for 1 h prior to the addition of estrone, data not shown): completely abolished; effect of preincubation with NADPH on inhibition ([2]; preincubation with NADPH for 15 min, NEM 60 μM, estrone 200 nM, NADPH 400 μM, concentration dependent): protected from inhibition
CCN(CC)C(=S)SSC(=S)N(CC)CC [disulfiram] | 8 ± 1 | about two orders of magnitude higher | –
C[C@]12CC[C@@H]3c4ccc(O)cc4CC[C@H]3[C@@H]1CCC2=O [estrone] | – | – | K m ([1]; Cys^10Ser mutant, estrone 10 to 800 nM, 400 μM NADPH): 65 ± 3 nM; V max ([1]; Cys^10Ser mutant, estrone 10 to 800 nM, 400 μM NADPH, normalized to protein expression): 124 ± 3 nmol/h/mg; K m ([2]; wild-type, estrone 10 to 800 nM, 400 μM NADPH): 43 ± 6 nM; V max ([2]; wild-type, estrone 10 to 800 nM, 400 μM NADPH, normalized to protein expression): 110 ± 5 nmol/h/mg
CN(C)C(=S)SSC(=S)N(C)C [thiram] | 21 ± 4 | about two orders of magnitude higher | –
S=C(S)NCCNC(=S)S [zineb] | – | about two orders of magnitude higher | IC50 [2]: 24 ± 3 µM
maneb | 25 ± 3 | about two orders of magnitude higher | –
